Tests used:
[1] = system: cecal ligation and puncture (CLP) model of sepsis; experiment: Cecal ligation and puncture (CLP) model of sepsis; assay type: in vivo, mice
Method: In anesthetized male Balb/C mice (ketamine 100 mg/kg and xylazine 8 mg/kg administered intramuscularly), abdominal access was gained via a midline incision. The cecum was isolated and ligated with a 6-0 silk ligature below the ileocecal valve, and the cecum punctured once with a 22 G needle, stool (approximately 1 mm^3) extruded from the hole, and the cecum placed back into the abdominal cavity. The abdomen was closed with two layers of 6-0 Ethilon sutures. Antibiotics were administered immediately after CLP (Premaxin 0.5 mg/kg, subcutaneously, in a total volume of 0.5 ml/mouse) and a single dose of resuscitative fluid (normal saline solution) was administered subcutaneously (20 ml/kg-body weight) immediately after CLP. […] Additionally, two injections were given on day 2 and day 3.
The cecal ligation and puncture experiment was repeated in a second group of animals. The experimental procedure was identical to that used in the preceding example.

[2] = system: LPS-stimulated RAW 267.4 cells; experiment: TNF secretion from LPS-stimulated RAW macrophages (ELISA); assay type: cell-based; details: 0.1 μg/ml LPS
Method: After 16 h, cell culture supernatants were collected for determination of TNF concentration by enzyme-linked immunosorbent assay (R & D Systems).

[3] = system: leukocyte recruitment into air pouch; experiment: Air pouch model of acute inflammation (carrageenan); assay type: in vivo, mice; details: 4 mg/kg i.p. 15 min before 1% carrageenan, exudate after five hours
Method: Air pouches were produced according to standard procedures (Garcia-Ramallo et al., 2002) using C57bk6 mice (wild-type) or strain-matched mice lacking both copies of the MIF gene (MIF−/−) by injecting sterile air s.c. on day 0 (6 ml) and day 3 (3 ml). […] 15 min. later the animals were challenged by injecting 1 ml 1% carrageenan (in PBS) into the air pouch cavity. Five hours after carrageenan injection the animals were sacrificed, the pouches washed with PBS, exudates collected, and the total number of infiltrating cells quantitated.

[4] = cited from earlier work

SMILES	survival ([1]; male Balb/C mice, 4 mg/kg i.p. 24 hours after CLP, further injections on day 2 and day 3, n=10, vehicle 2/10)	survival, repeat experiment in a second group of animals ([1]; procedure identical to the first CLP experiment, FIG. 4)	IC50 ([2]; RAW267.4, 30 minutes preincubation, supernatants after 16 h, read-out: IC50, inhibition of the release of TNFα)	leukocyte recruitment (number of infiltrating cells), wild-type mice ([3]; C57bk6 wild-type, p<0.04 relative to vehicle)	leukocyte recruitment (number of infiltrating cells), MIF knockout mice ([3]; MIF−/− mice, n.s.)	free (unbound) hormone as percentage of the total hormone in plasma [4]	inhibitory effect on TNF release compared with ISO-1 ([2]; 0.01-50 μM, 16 h)
N[C@H](Cc1cc(I)c(Oc2cc(I)c(O)c(I)c2)c(I)c1)C(=O)O [D-T4, dextrothyroxine]	6/10	dramatically increases survival	1000 nM	inhibits leukocyte recruitment	not in MIF knockout animals		
N[C@@H](Cc1cc(I)c(Oc2cc(I)c(O)c(I)c2)c(I)c1)C(=O)O [L-T4, L-thyroxine]						about 0.03%	more potent than ISO-1
